Experimental data reported in paper PMC6166654 (Leukemia, 2018).

Assays:
TF-1 cells [1] = test: Immunoblot analysis of cell lysates; assay type: cell-based, human
TF-1 cells [2] = test: Cell growth; assay type: cell-based, human; details: read-out: cell growth IC50, medium with GM-CSF, 5 days
TF1/SHP2^E76K cells [3] = test: Immunoblot analysis of cell lysates; assay type: cell-based, human; details: 2 days of SHP099 treatment
TF1/SHP2^A72V cells = test: Immunoblot analysis of cell lysates; assay type: cell-based, human; details: 2 days of SHP099 treatment
[4] = system: SHP2-knocked out TF-1 cell lines (TF1/KO1, TF1/KO2); test: Cell growth and cell lysate analysis in SHP2 knockout cells; assay type: cell-based, human; details: medium with GM-CSF
TF1/SHP2^E69K cells [5] = test: Immunoblot analysis of cell lysates; assay type: cell-based, human; details: 2 days of SHP099 treatment
TF1/SHP2^E69K cells [6] = test: Methylcellulose colony formation assay; assay type: cell-based, human; details: methylcellulose culture, 10 µM SHP099, day 7
TF1/SHP2^E76K cells [7] = test: Methylcellulose colony formation assay; assay type: cell-based, human; details: methylcellulose culture, 10 µM SHP099, day 7
TF1/SHP2^E69K cells [8] = test: Cell growth in GM-CSF free medium; assay type: cell-based, human; details: read-out: cell growth IC50, 5 days
TF1/SHP2^D61Y cells = test: Immunoblot analysis of cell lysates; assay type: cell-based, human; details: 2 days of SHP099 treatment
[9] = system: MV4-11 myeloid leukemia cells; test: Cell growth; assay type: cell-based; details: read-out: cell growth IC50; MV4-11 cells; 5 days
MV4-11 cells = test: Immunoblot analysis of cell lysates; assay type: cell-based

CC1(N)CCN(c2cnc(-c3cccc(Cl)c3Cl)c(N)n2)CC1 [SHP099]
Bcl-XL level (TF-1 cells [1]): reduced | PARP cleavage (TF-1 cells [1]): induced | active ERK (TF-1 cells [1]): inhibited | IC50 (TF-1 cells [2]): 1730 ± 520 nM | Bcl-XL level (TF1/SHP2^E76K cells [3]): little effect | PARP cleavage (TF1/SHP2^E76K cells [3]): did not induce | pERK1/2 level (TF1/SHP2^E76K cells [3]): little effect | Bcl-XL level (TF1/SHP2^A72V cells): little effect | PARP cleavage (TF1/SHP2^A72V cells): did not induce | pERK1/2 level (TF1/SHP2^A72V cells): little effect | effects in SHP2-knocked out TF-1 cell lines [4]: little effects | Bcl-XL level (TF1/SHP2^E69K cells [5]): reduced | PARP cleavage (TF1/SHP2^E69K cells [5]): induction | pERK1/2 level (TF1/SHP2^E69K cells [5]): reduced | GM-CSF hypersensitivity (TF1/SHP2^E69K cells [6]): lost | cytokine-independent colonies (TF1/SHP2^E69K cells [6]): eliminated | GM-CSF hypersensitivity (TF1/SHP2^E76K cells [7]): did not affect | cytokine-independent colonies (TF1/SHP2^E76K cells [7]): little effect | IC50 (TF1/SHP2^E69K cells [8]): 1460 ± 460 nM | Bcl-XL level (TF1/SHP2^D61Y cells): little effect | PARP cleavage (TF1/SHP2^D61Y cells): did not induce | pERK1/2 level (TF1/SHP2^D61Y cells): little effect | IC50 [9]: 320 ± 110 nM | Bcl-XL level (MV4-11 cells): reduced | PARP cleavage (MV4-11 cells): induced | pERK1/2 level (MV4-11 cells): reduced
